This note sets out measurements from publication PMC11206203, “Peptide macrocyclisation via intramolecular interception of visible-light-mediated desulfurisation” (Chemical Science, 2024).

The nature of this series: C(sp3)-C(sp3) bond formation by visible-light-mediated Cys desulfurisation: alanyl radical adds to terminal alkene of allylglycine (or O-allyl Ser, pentenylGly, acrylamide); TCEP 50 eq (25 mM), (Ir[dF(CF3)ppy]2(dtbpy))PF6 1 mol%, 450 nm blue LED; unprotected peptides. The following applies: 6 M Gdn.HCl, 0.1 M Na2HPO4 pH 7.5-8.0 / MeCN 9:1, 0.5 mM, 25.0 °C.

Take `CCCC[C@@H]1NC(=O)[C@H](CO)NC(=O)[C@H](CC(=O)O)NC(=O)CNC(=O)[C@H](C(C)C)NC(=O)[C@H](CCC(N)=O)NC(=O)[C@@H](NC(=O)[C@H](CC(C)C)NC(=O)[C@H](Cc2c[nH]cn2)NC(=O)[C@H](CCCNC(=N)N)NC(C)=O)CCCC[C@@H](C(=O)N[C@@H](CCCNC(=N)N)C(=O)N[C@@H](CO)C(=O)N[C@H](C(N)=O)[C@@H](C)CC)NC1=O`: the ring closure, isolated yield (from C=CC[C@H](NC(=O)[C@H](CC(C)C)NC(=O)[C@H](Cc1c[nH]cn1)NC(=O)[C@H](CCCNC(=N)N)NC(C)=O)C(=O)N[C@@H](CCC(N)=O)C(=O)N[C@H](C(=O)NCC(=O)N[C@@H](CC(=O)O)C(=O)N[C@@H](CO)C(=O)N[C@@H](CCCC)C(=O)N[C@@H](CS)C(=O)N[C@@H](CCCNC(=N)N)C(=O)N[C@@H](CO)C(=O)N[C@H](C(N)=O)[C@@H](C)CC)C(C)C, 26-membered ring) is 23%.
As to `CC(=O)N[C@H]1CCCC[C@@H](C(N)=O)NC(=O)[C@H](CCC(=O)O)NC(=O)[C@H](Cc2ccccc2)NC(=O)[C@H](C)NC1=O` [Ac-(allylGly)-Ala-Phe-Glu-Cys-NH2], the ring closure, isolated yield (from C=CC[C@H](NC(C)=O)C(=O)N[C@@H](C)C(=O)N[C@@H](Cc1ccccc1)C(=O)N[C@@H](CCC(=O)O)C(=O)N[C@@H](CS)C(N)=O, 17-membered ring) was determined as 74%.
`CSCC[C@@H]1NC(=O)[C@@H]2CCCN2C(=O)[C@H](CCCNC(=N)N)NC(=O)[C@@H](NC(C)=O)CCCC[C@@H](C(N)=O)NC(=O)[C@H](Cc2c[nH]cn2)NC1=O` [Ac-(allylGly)-Arg-Pro-Met-His-Cys-NH2]: the ring closure, isolated yield (from C=CC[C@H](NC(C)=O)C(=O)N[C@@H](CCCNC(=N)N)C(=O)N1CCC[C@H]1C(=O)N[C@@H](CCSC)C(=O)N[C@@H](Cc1c[nH]cn1)C(=O)N[C@@H](CS)C(N)=O, 20-membered ring) amounted to 48%.
`CC(=O)N[C@H]1CCCC[C@@H](C(N)=O)NC(=O)[C@H](C(C)C)NC(=O)[C@H](CCCNC(=N)N)NC(=O)[C@@H]2CCCN2C(=O)[C@H](Cc2c[nH]cn2)NC(=O)[C@H](CC(N)=O)NC1=O` [Ac-(allylGly)-Asn-His-Pro-Arg-Val-Cys-NH2] registered a ring closure, isolated yield (from C=CC[C@H](NC(C)=O)C(=O)N[C@@H](CC(N)=O)C(=O)N[C@@H](Cc1c[nH]cn1)C(=O)N1CCC[C@H]1C(=O)N[C@@H](CCCNC(=N)N)C(=O)N[C@H](C(=O)N[C@@H](CS)C(N)=O)C(C)C, 23-membered ring) of 32%.
`CC[C@H](C)[C@@H]1NC(=O)[C@H](CCCCN)NC(=O)[C@H](Cc2ccc(O)cc2)NC(=O)[C@H](CO)NC(=O)[C@H](CC(=O)O)NC(=O)[C@@H](NC(C)=O)CCCC[C@@H](C(N)=O)NC1=O` [Ac-(allylGly)-Asp-Ser-Tyr-Lys-Ile-Cys-NH2] showed a ring closure, isolated yield (from C=CC[C@H](NC(C)=O)C(=O)N[C@@H](CC(=O)O)C(=O)N[C@@H](CO)C(=O)N[C@@H](Cc1ccc(O)cc1)C(=O)N[C@@H](CCCCN)C(=O)N[C@H](C(=O)N[C@@H](CS)C(N)=O)[C@@H](C)CC, 23-membered ring) of 58%.
Where the note is “from C=CC[C@H](NC(C)=O)C(=O)N[C@@H](CCC(N)=O)C(=O)N[C@H](C(=O)NCC(=O)N[C@@H](CC(=O)O)C(=O)N[C@@H](CO)C(=O)N[C@@H](CCCC)C(=O)N[C@@H](CS)C(N)=O)C(C)C, 26-membered ring”, `CCCC[C@@H]1NC(=O)[C@H](CO)NC(=O)[C@H](CC(=O)O)NC(=O)CNC(=O)[C@H](C(C)C)NC(=O)[C@H](CCC(N)=O)NC(=O)[C@@H](NC(C)=O)CCCC[C@@H](C(N)=O)NC1=O` [Ac-(allylGly)-Gln-Val-Gly-Asp-Ser-Nle-Cys-NH2] displayed a ring closure, isolated yield of 76%.
`CC(=O)N[C@H]1CCCC[C@@H](C(N)=O)NC(=O)[C@H](Cc2c[nH]c3ccccc23)NC(=O)[C@H](CCC(N)=O)NC(=O)[C@H](CC(C)C)NC(=O)[C@H](CCC(=O)O)NC1=O` [Ac-(allylGly)-Glu-Leu-Gln-Trp-Cys-NH2] registered a ring closure, isolated yield (from C=CC[C@H](NC(C)=O)C(=O)N[C@@H](CCC(=O)O)C(=O)N[C@@H](CC(C)C)C(=O)N[C@@H](CCC(N)=O)C(=O)N[C@@H](Cc1c[nH]c2ccccc12)C(=O)N[C@@H](CS)C(N)=O, 20-membered ring) of 37%.
Turning to `CC[C@H](C)[C@@H]1NC(=O)[C@@H](NC(C)=O)CCCC[C@@H](C(N)=O)NC(=O)[C@H](CCCNC(=N)N)NC(=O)[C@H](Cc2c[nH]c3ccccc23)NC1=O` [Ac-(allylGly)-Ile-Trp-Arg-Cys-NH2], the ring closure, isolated yield (from C=CC[C@H](NC(C)=O)C(=O)N[C@H](C(=O)N[C@@H](Cc1c[nH]c2ccccc12)C(=O)N[C@@H](CCCNC(=N)N)C(=O)N[C@@H](CS)C(N)=O)[C@@H](C)CC, 17-membered ring) came to 59%.
In turn, `CSCC[C@@H]1NC(=O)[C@H](Cc2ccc(O)cc2)NC(=O)[C@H](CC(C)C)NC(=O)[C@@H](NC(C)=O)CCCC[C@@H](C(N)=O)NC1=O` [Ac-(allylGly)-Leu-Tyr-Met-Cys-NH2] gave a ring closure, isolated yield (from C=CC[C@H](NC(C)=O)C(=O)N[C@@H](CC(C)C)C(=O)N[C@@H](Cc1ccc(O)cc1)C(=O)N[C@@H](CCSC)C(=O)N[C@@H](CS)C(N)=O, 17-membered ring) of 69%.
As to `CC[C@H](C)[C@@H]1NC(=O)[C@H](CCCCN)NC(=O)[C@@H](NC(C)=O)CCCC[C@@H](C(N)=O)NC(=O)[C@H](Cc2ccc(O)cc2)NC(=O)[C@H](CO)NC1=O` [Ac-(allylGly)-Lys-Ile-Ser-Tyr-Cys-NH2], the ring closure, isolated yield (from C=CC[C@H](NC(C)=O)C(=O)N[C@@H](CCCCN)C(=O)N[C@H](C(=O)N[C@@H](CO)C(=O)N[C@@H](Cc1ccc(O)cc1)C(=O)N[C@@H](CS)C(N)=O)[C@@H](C)CC, 20-membered ring) came out at 64%.
Regarding `CC(=O)N[C@H]1CCCC[C@@H](C(N)=O)NC(=O)[C@H](CCCCN)NC(=O)[C@@H]2CCCN2C(=O)[C@H]([C@@H](C)O)NC1=O` [Ac-(allylGly)-Thr-Pro-Lys-Cys-NH2], the ring closure, isolated yield (from C=CC[C@H](NC(C)=O)C(=O)N[C@H](C(=O)N1CCC[C@H]1C(=O)N[C@@H](CCCCN)C(=O)N[C@@H](CS)C(N)=O)[C@@H](C)O, 17-membered ring) came out at 48%.
For `CC(=O)N[C@H]1CCCC[C@@H](C(N)=O)NC(=O)[C@H](CC(=O)O)NC(=O)CNC(=O)[C@H](C(C)C)NC1=O` [Ac-(allylGly)-Val-Gly-Asp-Cys-NH2], under “from C=CC[C@H](NC(C)=O)C(=O)N[C@H](C(=O)NCC(=O)N[C@@H](CC(=O)O)C(=O)N[C@@H](CS)C(N)=O)C(C)C, 17-membered ring”, the ring closure, isolated yield came out at 54%.
Where the note is “from C=CC[C@H](NC(C)=O)C(=O)N[C@H](C(=O)N[C@@H](Cc1c[nH]cn1)C(=O)N[C@@H](CCC(N)=O)C(=O)N[C@@H](CS)C(N)=O)C(C)C, 17-membered ring”, `CC(=O)N[C@H]1CCCC[C@@H](C(N)=O)NC(=O)[C@H](CCC(N)=O)NC(=O)[C@H](Cc2c[nH]cn2)NC(=O)[C@H](C(C)C)NC1=O` [Ac-(allylGly)-Val-His-Gln-Cys-NH2] came in with a ring closure, isolated yield of 59%.
Take `CC[C@H](C)[C@@H]1NC(=O)[C@H](CCCCN)NC(=O)[C@@H](NC(C)=O)CCCC[C@@H](C(N)=O)NC(=O)[C@H](Cc2ccc(O)cc2)NC(=O)[C@H](CO)NC1=O` [Ac-Cys-Lys-Ile-Ser-Tyr-(allylGly)-NH2]: the ring closure, isolated yield (from C=CC[C@H](NC(=O)[C@H](Cc1ccc(O)cc1)NC(=O)[C@H](CO)NC(=O)[C@@H](NC(=O)[C@H](CCCCN)NC(=O)[C@H](CS)NC(C)=O)[C@@H](C)CC)C(N)=O, 20-membered ring) came out at 64%.
On to `CCCC[C@H](NC(=O)[C@@H]1CCCC[C@H](NC(=O)[C@H](C)NC(=O)[C@H](CC(C)C)NC(=O)[C@H](Cc2c[nH]cn2)NC(C)=O)C(=O)N[C@@H](C(C)C)C(=O)NCC(=O)N[C@@H](CC(=O)O)C(=O)N1)C(=O)N[C@@H](CC(=O)O)C(=O)N[C@@H](CCCNC(=N)N)C(N)=O` [Ac-His-Leu-Ala-(allylGly)-Val-Gly-Asp-Cys-Nle-Asp-Arg-NH2], for which the ring closure, isolated yield (from C=CC[C@H](NC(=O)[C@H](C)NC(=O)[C@H](CC(C)C)NC(=O)[C@H](Cc1c[nH]cn1)NC(C)=O)C(=O)N[C@H](C(=O)NCC(=O)N[C@@H](CC(=O)O)C(=O)N[C@@H](CS)C(=O)N[C@@H](CCCC)C(=O)N[C@@H](CC(=O)O)C(=O)N[C@@H](CCCNC(=N)N)C(N)=O)C(C)C, 17-membered ring) was 23%.
`C[C@@H]1NC(=O)CCC[C@@H](C(N)=O)NC(=O)[C@H](C)NC(=O)[C@H](Cc2ccccc2)NC1=O` [Acryloyl-Ala-Phe-Ala-Cys-NH2] registered a ring closure, isolated yield (from C=CC(=O)N[C@@H](C)C(=O)N[C@@H](Cc1ccccc1)C(=O)N[C@@H](C)C(=O)N[C@@H](CS)C(N)=O, 15-membered ring, 1.0 h) of 0%.
